# Measured values reported in BindingDB's records for doi:10.1016/0024-3205(91)90562-p (Technion-Israel Institute of Technology, 1991).
# “And” between values parts separate entries of the source, which are not always exact repeats. Equal values may be shown once.
# Experiments:
# [1] = target: Gamma-aminobutyric acid receptor subunit alpha-1 (Rattus norvegicus, UniProt P62813)
# [2] = target: T1, Gamma-aminobutyric acid receptor subunit alpha-1 (Homo sapiens, UniProt P14867)
# T1 sequence (P14867 whole entry): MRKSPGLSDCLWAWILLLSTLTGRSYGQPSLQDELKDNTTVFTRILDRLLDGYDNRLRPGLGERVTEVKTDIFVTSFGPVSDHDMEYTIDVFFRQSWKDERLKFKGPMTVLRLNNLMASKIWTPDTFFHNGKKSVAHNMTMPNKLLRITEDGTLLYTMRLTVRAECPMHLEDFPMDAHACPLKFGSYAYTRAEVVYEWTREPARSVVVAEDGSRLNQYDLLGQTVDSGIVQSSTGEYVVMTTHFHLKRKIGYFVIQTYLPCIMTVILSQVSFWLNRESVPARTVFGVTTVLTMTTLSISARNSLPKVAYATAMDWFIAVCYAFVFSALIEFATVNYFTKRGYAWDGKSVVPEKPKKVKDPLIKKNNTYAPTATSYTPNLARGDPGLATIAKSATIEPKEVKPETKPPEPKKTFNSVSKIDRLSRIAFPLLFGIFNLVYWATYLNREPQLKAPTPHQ
# Chain of Gamma-aminobutyric acid receptor subunit alpha-1 (Rattus norvegicus, UniProt P62813) (P62813 whole entry): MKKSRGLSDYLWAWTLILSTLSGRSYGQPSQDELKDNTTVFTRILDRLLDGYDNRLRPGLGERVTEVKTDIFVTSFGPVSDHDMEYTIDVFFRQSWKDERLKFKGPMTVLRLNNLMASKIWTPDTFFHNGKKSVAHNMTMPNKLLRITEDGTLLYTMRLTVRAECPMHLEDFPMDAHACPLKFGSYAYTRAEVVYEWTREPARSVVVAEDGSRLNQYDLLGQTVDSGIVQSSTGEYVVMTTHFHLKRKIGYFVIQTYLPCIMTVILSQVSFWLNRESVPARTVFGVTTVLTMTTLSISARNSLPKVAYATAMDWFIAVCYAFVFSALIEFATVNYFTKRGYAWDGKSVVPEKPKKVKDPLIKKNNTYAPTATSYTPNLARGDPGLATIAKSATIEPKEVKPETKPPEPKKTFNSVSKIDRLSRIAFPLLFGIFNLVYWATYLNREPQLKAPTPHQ
Compound,Ki [1],Ki [2]
"O=C1CN=C(c2ccccc2Cl)c2cc([N+](=O)[O-])ccc2N1 [5-(2-chlorophenyl)-7-nitro-1,3-dihydro-2H-1,4-benzodiazepin-2-one]",> 10000 nM,> 10000 nM
CC[C@@H](C)N(C)C(=O)c1cc2ccccc2c(-c2ccccc2Cl)n1 [PK 11195],18 nM and 3 nM and 4 nM,8 nM and 5 nM
CN1C(=O)CN=C(c2ccc(Cl)cc2)c2cc(Cl)ccc21 [Ro5-4864],,750 nM
